{"source": "patent US20210130312A1", "about": "“INHIBITORS OF EYA3-PROTEIN TYROSINE PHOSPHATASE IN DNA DAMAGE REPAIR SIGNALING OF PULMONARY ARTERIAL HYPERTENSION” (CHILDREN'S HOSPITAL MEDICAL CENTER, priority 2018, published 2021)", "key": {"[1]": {"test_system": "γ-H2AX and 53BP1 foci in PASMC", "assay": "γ-H2AX and 53BP1 staining (DDR) in lungs from rats subject to the SuHx protocol", "type": "in vivo, rat", "conditions": "lungs of SuHx rats treated with EYA-PTP inhibitor", "source_text": "γ-H2AX foci report on the existence of DSBs, and the assembly of functional DDR complexes is characterized by the presence of 53BP1 foci. Rats subject to the SuHx protocol show increased γ-H2AX and 53BP1 staining in both PAEC and PASMC, likely as a result of oxidative stress. Rats treated with EYA-PTP inhibitor BZ had reduced γ-H2AX staining, as well as reduced 53BP1 foci formation in PASMC."}, "[2]": {"test_system": "Sugen-Hypoxia (SuHx) rat model", "assay": "Sugen-Hypoxia (SuHx) rat model of PAH: RVSP by right heart catheterization, Fulton's index, PV remodeling", "type": "in vivo", "description": "Sugen-Hypoxia (SuHx) rat model was used where a single administration of the VEGF inhibitor SU-5416 is followed by 3 weeks of hypoxia (10% O2) and PAH develops between 3-5 weeks after rats (adult Sprague-Daley males) are returned to room air. To test the effect of EYA-PTP inhibition on the development of PAH, benzarone (BZ) was administered every 3 days for 5 weeks after return to room air. The rats were maintained for a further 3 weeks in room air and then right ventricular systolic pressure (RVSP) measured by right heart catheterization. The increase in RVSP in BZ-treated rats was 32% less in BZ-treated rats than in vehicle-treated rats. Fulton's index (right ventricle/left ventricle plus septum weight) was also lower (by 28% relative to vehicle-treated controls) in BZ-treated animals indicating reduced RV hypertrophy."}, "[3]": {"conditions": "rat SuHx model of PH, statement in words"}}, "data": [{"compound": "CCc1oc2ccccc2c1C(=O)c1ccc(O)cc1", "note": "[BZ, benzarone]", "values": [{"measurement": "53BP1 foci formation in PASMC", "setting": "[1]", "value": "reduced"}, {"measurement": "γ-H2AX staining", "setting": "[1]", "value": "reduced"}, {"measurement": "increase in RVSP, less than in vehicle-treated rats", "setting": "[2]; SuHx rats, administered every 3 days for 5 weeks after return to room air, measured after a further 3 weeks in room air", "value": 32, "unit": "%"}, {"measurement": "Fulton's index (right ventricle/left ventricle plus septum weight), lower relative to vehicle-treated controls", "setting": "[2]; SuHx rats, same regimen, indicates reduced RV hypertrophy", "value": 28, "unit": "%"}, {"measurement": "PV remodeling", "setting": "[2]; [3]", "value": "effectively reduces"}, {"measurement": "RVSP", "setting": "[2]; [3]", "value": "effectively reduces"}]}]}
